# According to US9233127B2, “Compositions and methods for CXCR4 signaling and umbilical cord blood stem cell engraftment” (University of Virginia Patent Foundation, priority 2012, dated 2016):
# “Also recorded” adds a separate entry of the source.
# Experiments:
# [1] = test system: murine BM-derived Sca-1+ cells; experiment: Homing of primed murine Sca-1+ cells into BM of lethally irradiated syngeneic mice; type: in vivo; details: Sca-1+ cells preincubated with C3a 30 min, 16 hrs after transplant
# Source text: (§1) FIG. 16A-B—Panel A: C3a primes homing of murine CFU-GM and CFU-S into BM of lethally irradiated mice. Murine BM-derived Sca-1^+ cells (10^5/mouse) were transplanted into lethally irradiated syngeneic mice. At 16 hrs after transplant, cells were recovered from the femurs of transplanted animals and assayed in secondary cultures for the number of clonogenic CFU-GM (left panel) and, after transplant into secondarily irradiated animals, for the number of day-12 CFU-S (right panel). Data are pooled from three independent experiments using 10 mice each/tested cells (n=30). * p<0.0001. No HSPC cells were recovered from the marrow cavities of control animals (irradiated, not transplanted) Panel B: C3a primes homing of human CB and BM CD34^+ cells into the BM of lethally irradiated NOD/SCID mice. At 16 hrs after transplantation of human CD34^+ cells (10^6/animal), mice were sacrificed and CFU-GM colonies were assayed in methylcellulose cultures. Data are pooled from independent experiments preformed on three different CB- and three different BM samples using 2-4 mice/tested cell sample. p<0.0001.
# As final proof of our hypothesis and to test whether the primed cells home better to BM, we primed murine BM-derived Sca-1^+ and human BM- and UCB-derived CD34^+ cells with C3a before their transplantation into lethally irradiated mice. […]
# UCB CD34+ cells = experiment: Actin polymerization in CD34+ cells; type: cell-based, human; details: in the presence of C3a
# Source text: Exposure of UCB CD34^+ cells to a low dose of SDF-1 promotes actin polymerization which is enhanced by the presence of C3a.
# In another set of experiments, we attempted to elucidate the molecular mechanisms by which C3a enhances the responsiveness of hematopoietic cells to an SDF-1 gradient. […] However, we observed that actin polymerization of CD34^+ cells to a low dose of SDF-1 was enhanced in the presence of C3a.
# [2] = test system: UCB progenitors (human CD45 cells); experiment: Long-term human engraftment of C3a primed UCB in NOD/SCID mice; type: in vivo
# Experimental: FIG. 5A-B—Long-Term Engraftment of C3a Primed Progenitors (comprising upper and lower panels).
# FIG. 54A-B—NOD.SCID engraftment comparing C3a Primed UCB vs. Control. […] 54A—control; 54B—C3a
# These laboratory experiments were performed to evaluate responsiveness of UCB to SDF-1 gradient correlated with an outcome of injections in NOD/SCID mice to evaluate engraftment in vivo. In vivo studies incorporated humanized NOD.SCID/IL2rγ^null (NOG) mice were conducted to assess proportions and kinetics of human HSC homing, engraftment, comparing C3a primed UCB CD34^+ HSC vs. controls. NOD.SCID/IL2rγ^null is used in our studies as these mice lack the cytoplasmic region of the IL-2Rγ and reproducibly develop human T, myeloid, NK, and B-lymphoid cells when transplanted with cord blood CD34^+ cells. This model therefore provides a platform to analyze in vivo competitive repopulation of the full lymphopoietic system. […] More mature progenitors are considered to have exhausted after 8 weeks in this NOD.SCID model and human cells present are presumed to be derived from transplanted primitive progenitor cells. HLA staining was used to determine UCB chimerism and relative contribution of C3a primed UCB CD34^+ HSC to marrow engraftment.
# CXCR4 = experiment: Western blot of CXCR4 in lipid raft membrane fractions of THP-1 cells; type: cell-based, human
# Experimental: FIG. 15A-B—Western blot analysis of the colocalization of CXCR4 in fractions of cell membranes enriched in lipid rafts (fractions 3-5) and depleted of lipid rafts (fractions 9-11). Panel A: Hematopoietic THP-1 cells were stimulated by C3a (1 μg/mL) or desArgC3a (1 μg/mL) or not stimulated (control). CXCR4 was detected in these membrane fractions by Western blot along with ganglioside GM1, a marker of lipid rafts. Experiments were performed three times with similar results. Panel B: In control experiments, cells were pretreated for 1 hr with 10 mM MβCD. A representative study is shown.
# Furthermore, direct evidence of the effect of priming agents on CXCR4 incorporation into membrane lipid rafts was obtained from Western blot analysis of CXCR4 expression in various fractions of cell membranes isolated according to their lipid raft content (Example 2, FIG. 15A-B). […] The role of C3a in incorporation of CXCR4 into membrane lipid rafts in UCB cells and involvement of other signaling molecules to this phenomenon will be evaluated in Aim 1.
# [3] = test system: human BM- and UCB-derived CD34+ cells; experiment: Homing of primed human CD34+ cells into BM of lethally irradiated NOD/SCID mice; type: in vivo
# Source text: as §1, with “At 16 hrs after transplantation of human CD34^+ cells (10^6/animal), mice were sacrificed and CFU-GM colonies were assayed in methylcellulose cultures.” left out
# As final proof of our hypothesis and to test whether the primed cells home better to BM, we primed murine BM-derived Sca-1^+ and human BM- and UCB-derived CD34^+ cells with C3a before their transplantation into lethally irradiated mice. Sixteen hrs after transplantation, recipient mice were sacrificed and cells were recovered from their marrow cavities. […]
# Sca-1+ cells = experiment: Hematopoietic recovery of lethally irradiated mice given C3a primed Sca-1+ cells; type: in vivo
# Source text: FIG. 6A-B—Sca-1^+ Cells Primed with C3a Engraft Faster in Lethally Irradiated Mice. 6A—left panel; 6B—right panel.
# [4] = C3a primed hematopoietic progenitors
substance,measurement,setting,value
C3a: 77 amino acid residue protein derived from the human complement C3a precursor; SEQ ID NO:1,homing of murine CFU-GM and CFU-S into BM,[1],home more efficiently; also recorded: homed better; also recorded: primes homing
same,actin polymerization of CD34+ cells to a low dose of SDF-1,UCB CD34+ cells,enhanced
same,human CD45 cells detected by FACS in marrow,"[2]; NOD.SCID at 8 weeks after injection, vs control",significantly higher
same,"long-term human engraftment, flow cytometry for human anti-CD45","[2]; NOD/SCID mice harvest after 12 weeks, vs unprimed cells",exhibit long-term human engraftment
same,incorporation of Rac-1 into membrane lipid rafts,CXCR4,increased the incorporation of Rac-1
same,incorporation of CXCR4 into GM1-enriched membrane lipid rafts (fractions 3-5),CXCR4; 1 μg/mL,stimulates incorporation of CXCR4
same,"marrow homing, number of CFU-GM harvested per femur","[3]; 24 h after injection of NOD/SCID mice, C3a primed UCB CD34+ HSC",enhanced marrow homing
same,homing of human CFU-GM into BM,"[3]; CB and BM CD34+ cells preincubated with C3a 30 min, 16 hrs after transplantation",home more efficiently; also recorded: homed better; also recorded: primes homing
same,faster rate of leukocyte recovery relative to untreated mice,Sca-1+ cells; [4],5 days
same,platelet counts,Sca-1+ cells; [4],benefit in platelet counts
same,infusional toxicity and coagulopathy,Sca-1+ cells; murine studies,neither infusional toxicity nor evidence of coagulopathy was observed
